US20080021069A1, “Receptor Function Regulating Agent” (TAKEDA PHARMACEUTICAL COMPANY LIMITED, priority 2004, published 2008)

Legend:
[1] = biological target: T1, human GPR40 (Homo sapiens, UniProt O14842); experiment: GPR40 antagonist activity with changes in intracellular calcium concentration as index (NFAT-luciferase reporter, CHO(dhfr-)/GPR40-NFAT-Luc cells); format: cell-based; settings: CHO cell line expressing human GPR40, NFAT-Luc reporter; GPR40 agonist 3-(4-((6-benzyloxy-2',6'-dimethyl-biphenyl-3-yl)methoxy)phenyl)propanoic acid 40 nM; 4 hr culture; 0.1% fatty acid-free BSA
T1 construct: expressed in transfected cells; host or cells: CHO(dhfr-) cells: line CHO-hGPR40 No. 104 of WO2004/041266, with a stably expressed NFAT-TA-Luc reporter (CHO(dhfr-)/GPR40-NFAT-Luc)
T1 sequence (O14842 whole entry): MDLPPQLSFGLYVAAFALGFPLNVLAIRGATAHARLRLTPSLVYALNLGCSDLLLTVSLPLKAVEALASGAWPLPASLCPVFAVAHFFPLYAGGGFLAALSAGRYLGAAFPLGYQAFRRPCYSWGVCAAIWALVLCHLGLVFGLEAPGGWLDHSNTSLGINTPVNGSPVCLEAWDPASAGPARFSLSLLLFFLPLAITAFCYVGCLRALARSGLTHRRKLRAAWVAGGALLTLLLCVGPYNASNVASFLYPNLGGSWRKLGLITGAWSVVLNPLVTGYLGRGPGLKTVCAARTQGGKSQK
Text: Evaluation of GPR40 antagonist activity with changes in intracellular calcium concentration as index
An assay system of GPR40 antagonist was established as follows. In this assay system, as the GPR40 agonist, 3-(4-((6-benzyloxy-2′,6′-dimethyl-biphenyl-3-yl)methoxy)phenyl)propanoic acid (compound described in Example 340 of WO2004/041266) was used.
First, NFAT-TA was cut out from pNFAT-TA-Luc (manufactured by BD Bioscience Clontech) with HindIII and NheI, the recovered fragment was inserted into pGL3 basic neo digested with HindIII and NheI to give plasmid:pGL3 basic neo NFAT-TA-Luc.
This plasmid was used for “the CHO cell line (CHO-hGPR40 No. 104), which was made to express human GPR40” described in WO2004/041266, and a cell line CHO(dhfr-)/GPR40-NFAT-Luc, wherein a reporter gene was stably expressed by a method known per se, was prepared.
This cell line was diluted with a medium (nucleic acid-free MEM (Minimum Essential Medium)—α medium added with dialyzed FBS (Fetal Bovine Serum) to a final concentration of 10%) in such a manner that 2×10^4 cells/100 μl would be contained, dispensed to a white walled 96 well plate (manufactured by Coster) by 100 μl per well, and cultured overnight in a CO2 incubator. Then the medium was removed by suction from the 96 well plate, and a 10 mM test compound-dimethyl sulfoxide (manufactured by Wako Pure Chemical Industries, Ltd.) solution diluted with a medium (nucleic acid-free MEM—α medium added with bovine serum albumin (BSA) free of fatty acid to a final concentration of 0.1%) to each concentration was added by 50 μl per well. Further, 3-(4-((6-benzyloxy-2′,6′-dimethyl-biphenyl-3-yl)methoxy)phenyl)propanoic acid diluted with a medium (nucleic acid-free MEM-α (medium added with BSA free of fatty acid to a final concentration of 0.1%) to a final concentration of 40 nM was added to the 96 well plate by 50 μl per well.
After culture in a CO2 incubator for 4 hr, the culture medium was removed from the 96 well plate. Then, PicaGene (manufactured by TOYO INK MFG. CO., LTD.) was added to the 96 well plate, and the luciferase activity was determined using PerkinElmer ARVO (trade name, manufactured by PerkinElmer), based on which changes in the intracellular calcium concentration were evaluated. After assay of luciferase activity, nonlinear regression analysis was performed using PRISM 3 (trade name, manufactured by GraphPad) and IC50 value was calculated with changes in the intracellular calcium concentration as an index.
In the same manner as in Experimental Example 1, the IC50 value of the compound of the present invention was calculated.

Row | Compound | IC50 [1] [nM] | melting point [°C]
1 | COc1ccc(-n2c(NCc3ccc(C(C)(C)C)cc3)nc3ccc(Cl)cc32)cc1 [Example 72, N-(4-tert-Butylbenzyl)-6-chloro-1-(4-methoxyphenyl)-1H-benzimidazol-2-amine] | < 100 | 208 to 209
2 | CCCOc1ccc(-n2c(NCc3ccc(C(C)(C)C)cc3)nc3ccc(Cl)cc32)cc1 [Example 73, N-(4-tert-Butylbenzyl)-6-chloro-1-(4-propoxyphenyl)-1H-benzimidazol-2-amine] | < 100 | 98 to 100
3 | CCCOc1ccc(-n2c(NCc3ccc(Cl)cc3)nc3ccc(Cl)cc32)cc1 [Example 74, 6-Chloro-N-(4-chlorobenzyl)-1-(4-propoxyphenyl)-1H-benzimidazol-2-amine] | < 100 | 130 to 131
4 | CCCCOc1ccc(-n2c(NCc3ccc(Cl)cc3)nc3ccc(Cl)cc32)cc1 [Example 76, 1-(4-Butoxyphenyl)-6-chloro-N-(4-chlorobenzyl)-1H-benzimidazol-2-amine] | < 100 | 122 to 123
5 | CC(C)(C)c1ccc(CNc2nc3ccc(Cl)cc3n2-c2ccc(OCC(F)(F)F)cc2)cc1 [Example 78, N-(4-tert-Butylbenzyl)-6-chloro-1-[4-(2,2,2-trifluoroethoxy)phenyl]-1H-benzimidazol-2-amine] | < 100 | 151 to 152
6 | CC(C)(C)c1ccc(CNc2nc3ccc(Cl)cc3n2-c2ccc(OC(F)(F)F)cc2)cc1 [Example 80, N-(4-tert-Butylbenzyl)-6-chloro-1-[4-(trifluoromethoxy)phenyl]-1H-benzimidazol-2-amine] | < 100 | 181 to 182
7 | CCOc1ccc(-n2c(NCc3ccc(C(C)(C)C)cc3)nc3cc(Cl)ccc32)cc1 [Example 81, N-(4-tert-Butylbenzyl)-5-chloro-1-(4-ethoxyphenyl)-1H-benzimidazol-2-amine] | < 100 | 211 to 212
8 | CCOc1ccc(-n2c(NCc3ccc(Cl)cc3)nc3cc(Cl)ccc32)cc1 [Example 82, 5-Chloro-N-(4-chlorobenzyl)-1-(4-ethoxyphenyl)-1H-benzimidazol-2-amine] | < 100 | 109 to 110
9 | CCCOc1ccc(-n2c(NCc3ccc(C(C)(C)C)cc3)nc3cc(Cl)ccc32)cc1 [Example 83, N-(4-tert-Butylbenzyl)-5-chloro-1-(4-propoxyphenyl)-1H-benzimidazol-2-amine] | < 100 | 190 to 191
10 | CCCCOc1ccc(-n2c(NCc3ccc(C(C)(C)C)cc3)nc3cc(Cl)ccc32)cc1 [Example 86, 1-(4-Butoxyphenyl)-N-(4-tert-butylbenzyl)-5-chloro-1H-benzimidazol-2-amine] | < 100 | 158 to 159
11 | CC(C)(C)c1ccc(CNc2nc3cc(Cl)ccc3n2-c2ccc(OCC(F)(F)F)cc2)cc1 [Example 89, N-(4-tert-Butylbenzyl)-5-chloro-1-[4-(2,2,2-trifluoroethoxy)phenyl]-1H-benzimidazol-2-amine] | < 100 | 190 to 191
12 | CCOc1ccc(-n2c(NCc3ccc(C(C)(C)C)cc3)nc3cc(Cl)c(Cl)cc32)cc1 [Example 93, N-(4-tert-Butylbenzyl)-5,6-dichloro-1-(4-ethoxyphenyl)-1H-benzimidazol-2-amine] | < 100 | 186 to 187
13 | CCOc1ccc(-n2c(NCc3ccc(Cl)cc3)nc3cc(Cl)c(Cl)cc32)cc1 [Example 94, 5,6-Dichloro-N-(4-chlorobenzyl)-1-(4-ethoxyphenyl)-1H-benzimidazol-2-amine] | < 100 | 141 to 142
14 | CCOc1ccc(-n2c(NCc3ccc(Br)cc3)nc3cc(Cl)c(Cl)cc32)cc1 [Example 95, N-(4-Bromobenzyl)-5,6-dichloro-1-(4-ethoxyphenyl)-1H-benzimidazol-2-amine] | < 100 | 92 to 93
15 | CCCOc1ccc(-n2c(NCc3ccc(C(C)(C)C)cc3)nc3cc(Cl)c(Cl)cc32)cc1 [Example 96, N-(4-tert-Butylbenzyl)-5,6-dichloro-1-(4-propoxyphenyl)-1H-benzimidazol-2-amine] | < 100 | 122 to 123
16 | CCCOc1ccc(-n2c(NCc3ccc(Br)cc3)nc3cc(Cl)c(Cl)cc32)cc1 [Example 97, N-(4-Bromobenzyl)-5,6-dichloro-1-(4-propoxyphenyl)-1H-benzimidazol-2-amine] | < 100 | 106 to 107
17 | CCCOc1ccc(-n2c(NCc3ccc(Cl)cc3)nc3cc(Cl)c(Cl)cc32)cc1 [Example 98, 5,6-Dichloro-N-(4-chlorobenzyl)-1-(4-propoxyphenyl)-1H-benzimidazol-2-amine] | < 100 | 166 to 167
18 | CCCCOc1ccc(-n2c(NCc3ccc(Br)cc3)nc3cc(Cl)c(Cl)cc32)cc1 [Example 100, 1-(4-Butoxyphenyl)-5,6-dichloro-N-(4-bromobenzyl)-1H-benzimidazol-2-amine] | < 100 | 161 to 162
19 | CCCCOc1ccc(-n2c(NCc3ccc(Cl)cc3)nc3cc(Cl)c(Cl)cc32)cc1 [Example 101, 1-(4-Butoxyphenyl)-5,6-dichloro-N-(4-chlorobenzyl)-1H-benzimidazol-2-amine] | < 100 | 162 to 163
20 | CC(C)(C)c1ccc(CNc2nc3cc(Cl)c(Cl)cc3n2-c2ccc(OCC(F)(F)F)cc2)cc1 [Example 102, N-(4-tert-Butylbenzyl)-5,6-dichloro-1-[4-(2,2,2-trifluoroethoxy)phenyl]-1H-benzimidazol-2-amine] | < 100 | 136 to 137
21 | FC(F)(F)COc1ccc(-n2c(NCc3ccc(Br)cc3)nc3cc(Cl)c(Cl)cc32)cc1 [Example 103, N-(4-Bromobenzyl)-5,6-dichloro-1-[4-(2,2,2-trifluoroethoxy)phenyl]-1H-benzimidazol-2-amine] | < 100 | 118 to 120
22 | CC(C)(C)c1ccc(CNc2nc3cc(Cl)c(Cl)cc3n2-c2ccc(OC(F)(F)F)cc2)cc1 [Example 105, N-(4-tert-butylbenzyl)-5,6-dichloro-1-[4-(trifluoromethoxy)phenyl]-1H-benzimidazol-2-amine] | < 100 | 158 to 159
23 | CC(C)(C)c1ccc(CNc2nc3ccc(Cl)cc3n2-c2ccc(OC(F)(F)C(F)F)cc2)cc1.Cl [Example 106, N-(4-tert-Butylbenzyl)-6-chloro-1-[4-(1,1,2,2-tetrafluoroethoxy)phenyl]-1H-benzimidazol-2-amine hydrochloride] | < 100 | 130 to 133
24 | COc1ccc(-n2c(SCc3ccc(Cl)cc3)nc3cc(Cl)c(Cl)cc32)cc1 [Example 108, 5,6-Dichloro-2-[(4-chlorobenzyl)thio]-1-(4-methoxyphenyl)-1H-benzimidazole] | < 100 | 141 to 142
25 | CC(C)Oc1ccc(-n2c(SCc3ccc(Cl)cc3)nc3cc(Cl)c(Cl)cc32)cc1 [Example 110, 5,6-Dichloro-2-[(4-chlorobenzyl)thio]-1-(4-isopropoxyphenyl)-1H-benzimidazole] | < 100 | 149 to 150
26 | CCOc1ccc(-n2c(SCc3ccc(Cl)cc3)nc3cc(Cl)c(Cl)cc32)cc1 [Example 111, 5,6-Dichloro-2-[(4-chlorobenzyl)thio]-1-(4-ethoxyphenyl)-1H-benzimidazole] | < 100 | 131 to 132
27 | CCCOc1ccc(-n2c(SCc3ccc(Cl)cc3)nc3cc(Cl)c(Cl)cc32)cc1 [Example 112, 5,6-Dichloro-2-[(4-chlorobenzyl)thio]-1-(4-propoxyphenyl)-1H-benzimidazole] | < 100 | 119 to 120
28 | CCCCOc1ccc(-n2c(SCc3ccc(Cl)cc3)nc3cc(Cl)c(Cl)cc32)cc1 [Example 113, 1-(4-Butoxyphenyl)-5,6-dichloro-2-[(4-chlorobenzyl)thio]-1H-benzimidazole] | < 100 | 99 to 100
